Source: ChEMBL document CHEMBL5223073, “Andrographolide suppresses cisplatin-induced endothelial hyperpermeability through activation of PI3K/Akt and eNOS -derived nitric oxide” (Bioorg Med Chem, 2020)
The source made the active and inactive calls.

Legend:
[1] = molecular target: Nuclear factor NF-kappa-B complex (Homo sapiens) (UniProt Q00653+P19838+Q04206); test: Inhibition of cisplatin-induced NF-kappaB activation in HUVEC cell nuclear extract assessed as reduction in NF-kappaB-DNA binding activity at 100 uM incubated for 1 hr by electrophoretic mobility shift assay; type: subcellular; conditions: Nucleus
Chain of Nuclear factor NF-kappa-B complex (Homo sapiens) (P19838 whole entry, looked up): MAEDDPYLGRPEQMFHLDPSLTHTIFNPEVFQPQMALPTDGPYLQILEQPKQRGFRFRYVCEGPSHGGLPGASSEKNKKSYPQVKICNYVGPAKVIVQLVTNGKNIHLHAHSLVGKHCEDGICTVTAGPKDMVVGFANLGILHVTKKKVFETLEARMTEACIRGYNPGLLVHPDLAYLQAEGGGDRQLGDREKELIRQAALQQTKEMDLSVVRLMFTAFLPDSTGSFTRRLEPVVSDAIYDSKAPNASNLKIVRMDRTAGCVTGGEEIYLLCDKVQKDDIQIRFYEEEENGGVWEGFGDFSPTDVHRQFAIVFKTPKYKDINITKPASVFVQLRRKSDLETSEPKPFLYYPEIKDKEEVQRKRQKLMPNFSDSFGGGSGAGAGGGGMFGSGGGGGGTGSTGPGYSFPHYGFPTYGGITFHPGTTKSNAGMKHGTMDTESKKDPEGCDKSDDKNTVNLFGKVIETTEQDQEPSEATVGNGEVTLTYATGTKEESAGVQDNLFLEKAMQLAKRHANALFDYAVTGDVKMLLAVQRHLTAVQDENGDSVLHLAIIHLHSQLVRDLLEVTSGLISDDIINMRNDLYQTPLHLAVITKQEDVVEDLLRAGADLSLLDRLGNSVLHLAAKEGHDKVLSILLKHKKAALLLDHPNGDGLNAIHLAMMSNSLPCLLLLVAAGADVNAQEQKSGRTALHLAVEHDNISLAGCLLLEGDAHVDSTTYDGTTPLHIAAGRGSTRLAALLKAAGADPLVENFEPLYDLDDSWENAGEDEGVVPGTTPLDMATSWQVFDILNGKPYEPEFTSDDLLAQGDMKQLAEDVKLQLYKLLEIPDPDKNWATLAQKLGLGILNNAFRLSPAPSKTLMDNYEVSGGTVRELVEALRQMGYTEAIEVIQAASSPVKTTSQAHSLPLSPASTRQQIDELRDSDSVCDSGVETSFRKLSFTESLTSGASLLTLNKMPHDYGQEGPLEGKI
Chain of Nuclear factor NF-kappa-B complex (Homo sapiens) (Q00653 whole entry, looked up): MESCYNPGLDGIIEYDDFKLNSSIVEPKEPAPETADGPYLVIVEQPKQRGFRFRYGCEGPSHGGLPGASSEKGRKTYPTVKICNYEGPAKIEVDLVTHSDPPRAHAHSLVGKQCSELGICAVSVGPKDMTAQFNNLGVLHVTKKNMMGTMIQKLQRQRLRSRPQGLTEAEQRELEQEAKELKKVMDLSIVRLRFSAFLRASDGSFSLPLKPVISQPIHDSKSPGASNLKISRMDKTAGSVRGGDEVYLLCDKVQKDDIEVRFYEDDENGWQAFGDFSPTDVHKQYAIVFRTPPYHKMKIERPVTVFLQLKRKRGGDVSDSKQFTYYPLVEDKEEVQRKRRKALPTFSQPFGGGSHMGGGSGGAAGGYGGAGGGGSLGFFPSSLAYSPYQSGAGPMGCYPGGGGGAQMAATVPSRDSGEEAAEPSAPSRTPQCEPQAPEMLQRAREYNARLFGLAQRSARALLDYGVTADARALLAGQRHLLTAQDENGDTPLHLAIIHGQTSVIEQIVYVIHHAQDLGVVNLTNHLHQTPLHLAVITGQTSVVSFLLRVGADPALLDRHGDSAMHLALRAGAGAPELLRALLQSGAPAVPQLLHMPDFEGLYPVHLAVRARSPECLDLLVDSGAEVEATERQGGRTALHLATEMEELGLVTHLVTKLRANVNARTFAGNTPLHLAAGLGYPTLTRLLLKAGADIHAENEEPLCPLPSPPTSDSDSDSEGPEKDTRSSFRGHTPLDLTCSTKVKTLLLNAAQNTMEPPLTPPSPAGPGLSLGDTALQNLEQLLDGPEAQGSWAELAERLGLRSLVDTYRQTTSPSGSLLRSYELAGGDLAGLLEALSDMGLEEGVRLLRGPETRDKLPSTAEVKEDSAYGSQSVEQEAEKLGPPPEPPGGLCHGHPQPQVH
Chain of Nuclear factor NF-kappa-B complex (Homo sapiens) (Q04206 whole entry, looked up): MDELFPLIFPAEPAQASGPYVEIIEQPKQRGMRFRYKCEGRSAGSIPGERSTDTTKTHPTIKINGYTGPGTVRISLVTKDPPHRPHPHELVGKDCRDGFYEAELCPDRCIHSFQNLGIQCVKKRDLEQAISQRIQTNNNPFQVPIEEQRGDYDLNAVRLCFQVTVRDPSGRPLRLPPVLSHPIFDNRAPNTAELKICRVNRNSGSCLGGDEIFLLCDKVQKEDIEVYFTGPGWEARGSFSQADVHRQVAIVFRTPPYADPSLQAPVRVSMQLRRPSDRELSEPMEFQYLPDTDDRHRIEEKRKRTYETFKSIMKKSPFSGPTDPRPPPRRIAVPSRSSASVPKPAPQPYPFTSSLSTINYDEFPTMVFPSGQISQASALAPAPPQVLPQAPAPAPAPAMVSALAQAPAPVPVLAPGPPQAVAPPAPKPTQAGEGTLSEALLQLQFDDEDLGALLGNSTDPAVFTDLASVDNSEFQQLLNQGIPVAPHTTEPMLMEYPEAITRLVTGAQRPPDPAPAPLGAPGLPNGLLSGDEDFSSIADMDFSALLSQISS

[2] = molecular target: T1, NF-kappa-B inhibitor alpha (Homo sapiens) (UniProt P25963); test: Inhibition of cisplatin-induced phosphorylation of IkappaBalpha at Ser32/36 residue in HUVEC cells at 100 uM incubated for 1 hr by Western blot analysis; type: cell-based
T1 sequence (whole entry): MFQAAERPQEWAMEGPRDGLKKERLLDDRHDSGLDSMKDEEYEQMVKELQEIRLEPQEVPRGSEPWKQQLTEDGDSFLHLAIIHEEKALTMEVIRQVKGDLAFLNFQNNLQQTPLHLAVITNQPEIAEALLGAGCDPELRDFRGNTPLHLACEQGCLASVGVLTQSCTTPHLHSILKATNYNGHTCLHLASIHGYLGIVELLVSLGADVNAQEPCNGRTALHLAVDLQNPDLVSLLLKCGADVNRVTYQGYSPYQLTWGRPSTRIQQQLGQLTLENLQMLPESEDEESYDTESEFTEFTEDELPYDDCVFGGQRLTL

[3] = molecular target: Transcription factor p65 (Homo sapiens) (UniProt Q04206); test: Inhibition of cisplatin-induced phosphorylation of p65 subunit at Ser536 residue in HUVEC cells at 100 uM incubated for 1 hr by Western blot analysis; type: cell-based
Chain of Transcription factor p65 (Homo sapiens) (Q04206 whole entry): as the sequence (Q04206 whole entry, looked up) above

HUVEC [4] = test: Inhibition of cisplatin-induced PKCalpha translocation in HUVEC cells at 100 uM incubated for 15 mins in presence of cisplatin by Western blot analysis; type: functional, cell-based; conditions: Homo sapiens
HUVEC [5] = test: Inhibition of cisplatin-induced TRPC1 phosphorylation in [32P] orthophosphate labeled HUVEC cells at 100 uM incubated for 15 mins in presence of cisplatin by Western blot analysis; type: cell-based; conditions: Homo sapiens
HUVEC [6] = test: Inhibition of cisplatin-induced store operated Ca2+ release in HUVEC cells at 100 uM preincubated with compound followed by cisplatin stimulation by Fura-2 AM staining based calcium influx assay; type: functional, cell-based; conditions: Homo sapiens
HUVEC [7] = test: Improvement in cisplatin-induced endothelial monolayer integrity in HUVEC cells assessed as increase in transendothelial electric resistance at 100 uM preincubated with compound followed by cisplatin stimulation and measured after 45 mins; type: functional, cell-based; conditions: Homo sapiens
HUVEC [8] = test: Inhibition of cisplatin-induced TRPC1 phosphorylation in [32P] orthophosphate labeled HUVEC cells at […] incubated for 15 mins in presence of cisplatin by Western blot analysis; type: cell-based; conditions: Homo sapiens

CC(=O)N[C@@H](C(=O)O)C(C)(C)SN=O
active: inhibition [1] | inhibition [2] | inhibition [3] | inhibition (HUVEC [4]) | inhibition (HUVEC [5]) | inhibition (HUVEC [6]) | Activity (HUVEC [7])

Cn1c2ccccc2c2c3c(c4c5ccccc5n(CCC#N)c4c21)CNC3=O
active: inhibition (HUVEC [8])
